According to US20030022920A1, “1-Methyl-4- (3-ethoxy-9H-thioxanthene-9-ylidene) -piperidine and its use as 5-HT2B/H1 receptor antagonist” (priority 2001, published 2003):

Tests used:
human 5-HT2B receptor [1] = molecular target: T1, human 5-HT2B receptor (Homo sapiens, UniProt P41595); experiment: 5-HT2A/5-HT2B/5-HT2C receptor binding methods (counter screen for selectivity); design: expressed in transfected cells; host or cells: HEK293; conditions: human 5-HT2B in HEK293, [3H]-5HT approx. 0.4 nM, 120 min at 4° C.; result in words only
Protocol: 5-HT2A 5-HT2B 5-HT2C Receptor Binding Methods
5-HT2A receptors were labelled with [^3H]ketanserin in human cortex, in HEK293 cells expressing a cloned human 5-HT2A receptor and in HEK293 cells expressing the rat 5-HT2A receptor. For competition binding studies the ligand concentration was approximately 0.1 nM. For saturation binding studies concentrations of radioligand ranged from 0.01 nM to 2.0 nM. Assays were conducted in 0.5 ml of assay buffer (50 mM Tris-HCl, 4 mM calcium chloride, 0.1% by weight ascorbic acid) (pH 7.4 at 4° C.). Non-specifc binding was defined with […] unlabelled ketanserin. After a 60 min incubation at 32° C., membranes were harvested onto filters treated with 0.1% by weight of polyethylenimine and the bound radioactivity was determined.
Human 5-HT2B receptors were labelled in HEK293 cells as described above. except that the radioligand was [^3H]-5HT and that the assay buffer contained pargyline in a concentration of 10 mM and 0.1% by weight of ascorbic acid. […]
Competition radioligand binding data was analyzed using a four parameter logistic equation and iterative curve-fitting techniques to obtain estimates of the IC50 and Hill slope. Kd values, determined from saturation binding studies were then used to calculate inhibition dissociation constants (Ki).

human 5-HT2B receptor [2] = molecular target: T1, human 5-HT2B receptor; experiment: Cloned human 5-HT2B receptor binding assay ([3H]-5HT, transfected HEK 293 cell membranes); design: expressed in transfected cells; host or cells: HEK 293 (transient transfection; membranes); conditions: [3H]5-HT 4 to 5 nM, 37° C. 30 min, result in words only
Protocol: Cloned Human 5-HT2B Receptor Binding Assay
The following describes an in vitro binding assay utilizing cloned 5-HT2B receptors radiolabelled with [^3H]-5HT.
HEK 293 cells transiently transfected with an expression plasmid pXMD1-hu2B encoding the human 5-HT2B receptor (see Schmuck et al., FEBS Lett., 1994, 342, 85-90) were used as described previously (Schmuck et al., Eur. J. Pharmacol., 1996, 8, 959-967). Two days after transfection cells were harvested, pelleted at 500 g for 5 min at 4° C., gently resuspended in ice-cold buffer1 (50 mM TRIS pH 7.7, 4 mM CaCl2) and homogenized using a Polytron PT 1200 tissue homogenizer (position 6 for 30 s). Cells were pelleted at 50,000 g, 4° C. for 10 min, washed with buffer1 and pelleted again. The final pellet was resuspended in incubation buffer (50 mM TRIS pH 7.7, 4 mM CaCl2, 10 μM pargyline and 0.1% by weight ascorbic acid). The binding assay consisted of 300 μl of membrane suspension (protein concentration =0.3 to 0.5 mg/ml), 150 μl of competing drug and 50 μl of [^3H]5-HT at a final concentration of 4 to 5 nM. […] Filters were counted by liquid scintillation. Non-specific binding was determined in the presence of an excess of 5-HT ([…]). […] Results are expressed as pK1 values. […]

[3] = molecular target: T2, 5-HT receptors (the putative 5-HT2B) in rat stomach fundus longitudinal muscle (Rattus norvegicus, UniProt P30994); experiment: 5-HT2B receptor tissue based functional assay in rat stomach fundus longitudinal muscle; format: biochemical; conditions: dextral shift of 5-HT agonist concentration-response curve, rat stomach fundus strips; result in words only
T2 construct: Strips of longitudinal muscle were obtained from the stomach fundus of male Sprague Dawley rats; from tissue; host or cells: rat stomach fundus longitudinal muscle strips
Protocol: 5-HT2B Receptor Tissue Based Functional Assay
The following describes an in vitro functional assay characterizing 5-HT receptors (the putative 5-HT2B) in rat stomach fundus longitudinal muscle (Baxter et al., Brit. J. Pharmacol. 1994, 112, 323-331).
Strips of longitudinal muscle were obtained from the stomach fundus of male Sprague Dawley rats. The mucosa was removed and the strips were suspended with a resting tension of 1 g in oxygenated (95% O2/5% CO2) Tyrode solution at 37° C. The composition of the Tyrode solution was as follows (mM): NaCl 136.9; KCl 2.7; NaH2PO4 0.4; MgCl2 1.0; glucose 5.6; NaHCO3 11.9; CaCl2 1.8. […]
Effects of drugs were monitored by tension transducers and recorded on polygraph recorders. Tissue response was measured as changes in isometric tension (g). The mean potency (EC50) and maximum response were evaluated by standard iterative curve fitting procedures.
Effects of antagonists were determined by measuring dextral shifts to the agonist concentration-response curve after equilibration of the antagonists for at least 1 h. Concentration ratios were measured at half maximal response levels and single concentration antagonist affinities were determined by the equation: [formula]

human H1 receptor = molecular target: T3, human H1 receptor (Homo sapiens, UniProt P35367); experiment: Human histamine H1 receptor functional assay ([3H]-inositol phosphate formation in transfected HEK-293 cells); format: cell-based; conditions: histamine-stimulated [3H]-inositol phosphate formation, result in words only
T3 construct: expressed in transfected cells; host or cells: HEK-293 (transient transfection; whole cells)
Protocol: Human Histamine H1 Receptor Functional Assay
For the measurement of the [^3H]-inositol phosphate formation transiently transfected HEK-293 cells were seeded in 24 well plates and labeled to equilibrium with myo-[2-^3H]-inositol (3 iCi/ml) for an additional 24 hours in growth medium. The medium was aspirated and cells were washed once with 500 μl HBS-buffer (130 mM NaCl, 900 μM NaH2PO4, 800 μM MgSO4, 5.4 mM KCl, 1.8 mM CaCl2, 25 mM Glucose in 20 mM HEPES pH 7.4). Two min after applying 20 mM Li^+ the cells were stimulated by addition of histamine in HBS-buffer. The incubation was stopped by aspiration off the culture medium and the addition of cold 10 mM formic acid. [^3H]inositol phosphates were isolated by anion exchange chromatography (see Seuwen et al., 1988, EMBO J., 7, 161-168). The pKB value was calculated according to the formula: pKB=log (A′/A−1)−log [B], where A′/A is the ratio of the agonist concentrations (EC50 in the presence/EC50 in the absence of antagonist) and [B] the concentration of antagonist.

[4] = molecular target: T4, human Histamine H1 receptor (Homo sapiens, UniProt P35367); experiment: Cloned human H1, H2 and H3 receptor binding assay ([3H]-mepyramine, transfected COS-7 cell homogenates); conditions: displacement of 1 nM [3H]-mepyramine, COS-7 homogenates; result in words only
T4 construct: expressed in transfected cells; host or cells: COS-7 (transient transfection; cell homogenates)
Protocol: Cloned Human H1, H2, and H3 Receptor Binding Assay
COS-7 cells were transiently transfected with an expression plasmid pCineohH1, pCineohH2, pCineohH3 and pCineohH4 encoding the human Histamine H1, H2, H3 or H4 receptor, respectively. Transfected cells were harvested after 48 h, homogenized in ice-cold 50 mM Na2/potassium phosphate buffer (pH 7.4) and used for radioligand binding studies. Cell homogenates (40-50 μg of protein) were incubated for 30 min at 25° C. in 50 mM Na2/potassium phosphate buffer (pH 7.4) in 400 μl with the various concentrations of either [^3H]-mepyramine, [^3H]-thiotidine, [^3H]-R-α-Methylhistamine, and [^3H]-pyramilamine for cells expressing recombinant human H1, H2, H3 and H4 receptors, respectively. The nonspecific binding was defined in the presence of 1 μM mianserin. In displacement studies, cell homogenated were incubated either with 1 nM [^3H]-mepyramine, 15 nM [^3H]-thiotidine, 0.5 nM [^3H]-R-α-Methylhistamine, or 15 nM [^3H]-pyramilamine and increasing concentrations of competing ligands. […] The bound radioactivity was seperated by filatration through Whatman GF/C filters that had been treated with 0.3% polyethyleneimine. Filters were washed twice in 3 ml of buffer and radioactivity retained on the filters was measured by liquid scinitllation counting. […]

T1 sequence (P41595 whole entry): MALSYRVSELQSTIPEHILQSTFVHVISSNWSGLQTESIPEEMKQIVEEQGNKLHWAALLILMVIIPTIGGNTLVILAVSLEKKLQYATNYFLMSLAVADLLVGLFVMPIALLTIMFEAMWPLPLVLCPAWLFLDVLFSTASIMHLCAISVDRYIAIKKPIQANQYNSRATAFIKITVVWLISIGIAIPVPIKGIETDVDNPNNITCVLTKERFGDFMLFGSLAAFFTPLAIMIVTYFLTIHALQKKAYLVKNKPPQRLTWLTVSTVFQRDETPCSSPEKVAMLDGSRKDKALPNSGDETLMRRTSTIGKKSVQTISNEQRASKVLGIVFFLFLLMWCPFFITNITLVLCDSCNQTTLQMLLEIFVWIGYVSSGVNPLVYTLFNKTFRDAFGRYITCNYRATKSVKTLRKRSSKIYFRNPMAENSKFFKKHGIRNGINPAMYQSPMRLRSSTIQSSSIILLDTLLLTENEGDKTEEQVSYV
T4 sequence (P35367 whole entry): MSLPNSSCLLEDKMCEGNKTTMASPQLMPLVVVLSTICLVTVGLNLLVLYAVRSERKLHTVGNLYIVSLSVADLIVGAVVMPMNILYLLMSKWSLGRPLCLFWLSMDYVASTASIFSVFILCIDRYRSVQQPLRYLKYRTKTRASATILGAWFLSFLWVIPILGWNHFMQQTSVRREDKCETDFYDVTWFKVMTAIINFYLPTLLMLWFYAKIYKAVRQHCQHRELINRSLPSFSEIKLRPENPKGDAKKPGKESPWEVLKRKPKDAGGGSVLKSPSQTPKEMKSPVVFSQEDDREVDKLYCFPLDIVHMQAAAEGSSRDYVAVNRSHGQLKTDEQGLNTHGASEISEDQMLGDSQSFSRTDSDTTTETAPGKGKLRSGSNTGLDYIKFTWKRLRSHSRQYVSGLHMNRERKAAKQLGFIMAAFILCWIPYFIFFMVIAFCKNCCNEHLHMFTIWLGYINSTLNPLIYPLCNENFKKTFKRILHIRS
T3 sequence (P35367 whole entry): as above
T2 sequence (P30994 whole entry): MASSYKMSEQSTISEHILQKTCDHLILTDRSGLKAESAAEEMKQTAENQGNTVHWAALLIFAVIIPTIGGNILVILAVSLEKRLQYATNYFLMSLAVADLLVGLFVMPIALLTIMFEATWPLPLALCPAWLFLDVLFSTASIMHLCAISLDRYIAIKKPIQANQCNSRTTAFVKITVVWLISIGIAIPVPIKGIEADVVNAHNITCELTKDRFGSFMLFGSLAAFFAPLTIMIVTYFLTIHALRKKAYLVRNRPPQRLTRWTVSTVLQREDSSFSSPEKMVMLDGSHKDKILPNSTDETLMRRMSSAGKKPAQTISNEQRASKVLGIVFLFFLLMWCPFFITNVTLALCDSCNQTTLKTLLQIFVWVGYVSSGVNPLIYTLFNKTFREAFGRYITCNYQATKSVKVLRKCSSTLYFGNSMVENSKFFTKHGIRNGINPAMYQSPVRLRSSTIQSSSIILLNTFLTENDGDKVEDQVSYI

CCOc1ccc2c(c1)Sc1ccccc1C2=C1CCN(C)CC1 [1-methyl-4-(3-ethoxy-9H-thioxanthene-9-ylidene)-piperidine]
affinity for the 5-HT2B receptor (human 5-HT2B receptor [1]): found to have affinity for the 5-HT2B receptor
affinity for the 5-HT2B receptor (human 5-HT2B receptor [2]): found to have affinity for the 5-HT2B receptor
antagonism at the 5-HT2B receptor [3]: found to be an antagonist at the 5-HT2B receptor
antagonism at the human H1 receptor (human H1 receptor): found to be an antagonist at the human H1 receptor
affinity for the human H1 receptor [4]: found to have affinity for the human H1 receptor
